# Test system: gene expression in etiolated eto1-4 seedlings
# Experiment: Transcriptional profiling (ATH1 GeneChip microarray) of etiolated eto1-4 seedlings
# Format: in vivo, Arabidopsis thaliana
# Experimental: For chemical treatments, seeds were sown on 0.5×MS agar medium supplemented with 10 μM chemicals (AVG, compounds 9393, 9370, and 7303) or DMSO (as control). Arabidopsis seeds were stratified in the dark at 4° C. for 4 days, then germinated in the dark for 3 days at 22° C. Approximately 2,000 etiolated seedlings of the wild type or eto1-4 were used to collect tissues for preparation of total RNA in each microarray experiment with Arabidopsis ATH1 GeneChip (Affymetrix). Extraction of RNA followed an established protocol (Chang, et al. (1993) Plant Mol. Biol. Rep. 11, 113-117). Total RNA (10 μg) was used to prepare biotinylated cRNA for hybridization to ATH1 GeneChip in the experiments disclosed herein. Experiments were repeated by 2 independent biological duplicates, and candidate genes present in both experiments were selected for further analysis. The MASS method was used for data analysis and normalization by all sample medium. Candidate genes were selected by the following criteria. First, genes with 1.5-fold differential expression between the wild type and eto1-4 were selected as the master gene pool, which was then used for comparison in treatments with AVG and individual exemplary compounds. Data were presented in hierarchical clustering and Venn diagram format. Agilent GeneSpring GX and Bioconductor software were used to analyze the expression profile data. Gene Ontology descriptions were generated by GeneSpring GX and further referred to the TAR GO database. Raw data are available in the GEO database (http://www.ncbi.nlm.nih.gov/geo) with Accession no. GSE20897.
# The filtered and normalized expression data set from 22810 probes on the ATH1 Genechip was used for hierarchical clustering of gene expression profiles for comparison between AVG and the exemplary invention compounds in eto1-4. It was identified that 1,446 genes show at least 1.5-fold difference in expression between the WT and eto1-4 and used them as the master gene pool for clustering analysis (FIG. 7A). […] These genes likely contribute to the etiolated phenotype of eto1-4 by responding to elevated endogenous ethylene. To determine whether the exemplary compounds have specific r overlapping functions with AVG to suppress the eto1-4 phenotype, genes that are regulated by individual exemplary invention compounds and AVG for Venn diagram analysis were clustered (FIG. 7B). More than 63% of genes (356/561 for compound 9393; 389/561 for compound 9370; 399/561 for compound 7303; FIG. 7B) with expression associated with AVG were co-regulated by the exemplary invention compounds, which indicates an overlap function in suppression of the ethylene phenotype in eto1-4. […] Next genes co-regulated by all of the exemplary invention compounds and AVG were examined by performing a clustering analysis using the co-regulated genes identified in FIG. 7B: 356 (compound 9393 vs AVG), 389 (compound 9370 vs AVG) and 399 genes (compound 7303 vs AVG). It was uncovered that 276 genes were co-regulated by all of the exemplary invention compounds and AVG (FIG. 7C and Table 2). On the basis of GO descriptions generated by Gene Spring GX and TAIR database, the 276 genes were divided into subgroups related to their biological functions (Table 2). […] In addition, stress- and pathogenesis-related genes were among the co-regulated genes, possibly because ethylene is involved in both biotic and abiotic stresses.
# Genes (1446 non-redundant loci) were selected by 1.5-fold differential expression between eto1-4 and WT as the master pool for analysis. These genes were used for comparison between chemical treatments by AVG and the exemplary invention compounds. The finalized 276 genes that are co-regulated by AVG and all of the exemplary invention compounds are shown. Locus ID also present in Nemhauser et al. (Nemhauser, et al. (2006) Cell 126, 467-475).
# [1] = of 1446 genes differentially expressed between WT and eto1-4, 10 μM
# [2] = ratio eto1-4 treated to eto1-4 (no treatment)
structure (smiles),measurement,setting,value
COc1ccc(C2CC(=O)c3cnc(Nc4ccccc4)nc3C2)cc1 (centres unmarked) [Compound 7303],number of genes co-regulated with AVG,"of 561 genes associated with AVG, 10 μM",399 genes
same,number of genes regulated (expression reverted close to WT),[1],650 genes
same,percentage of genes regulated (expression reverted close to WT),[1],45.0%
same,"number of genes regulated specifically, not related to AVG treatment","of all genes regulated by the compound (629, 728, 650), 10 μM",251 genes
same,"Signal Fold Change AT1G03457, unknown biological function",[2],3.04
same,"Signal Fold Change AT1G03660, unknown biological function",[2],1.59
same,Signal Fold Change AT1G05010 ACC oxidase,[2],0.30
same,Signal Fold Change AT1G05760 jacalin lectin protein,[2],3.70
same,Signal Fold Change AT1G06720 expressed protein,[2],1.26
same,"Signal Fold Change AT1G07280, unknown biological function",[2],0.37
same,Signal Fold Change AT1G07560 leucine-rich repeat protein kinase,[2],1.99
same,Signal Fold Change AT1G08650 phosphoenolpyruvate carboxylase kinase,[2],3.40
same,Signal Fold Change AT1G08990 glycogenin glucosyltransferase,[2],2.60
same,Signal Fold Change AT1G09530 phytochrome interacting factor 3,[2],0.29
same,Signal Fold Change AT1G10760 starch excess protein (SEX1),[2],0.43
same,"Signal Fold Change AT1G13430, response to cytokinin stimulus, sulfotransferase protein",[2],0.34
same,Signal Fold Change AT1G14540 anionic peroxidase,[2],0.42
same,Signal Fold Change AT1G15380 lactoylglutathione lyase,[2],2.99
same,"Signal Fold Change AT1G17970, unknown biological function",[2],2.35
same,Signal Fold Change AT1G18880 proton-dependent oligopeptide transport (POT) protein,[2],2.51
same,"Signal Fold Change AT1G20190, cell wall organization and biogenesis, expansin (EXP11)",[2],0.43
same,Signal Fold Change AT1G22740 Ras-related protein (RAB7),[2],3.52
same,"Signal Fold Change AT1G23060, unknown biological function",[2],0.35
same,"Signal Fold Change AT1G26930, unknown biological function",[2],0.40
same,Signal Fold Change AT1G27380 p21-rho-binding domain-containing protein,[2],2.14
same,"Signal Fold Change AT1G29520, unknown biological function",[2],2.27
same,"Signal Fold Change AT1G30750, unknown biological function",[2],2.87
same,Signal Fold Change AT1G31710 copper amine oxidase,[2],5.43
same,Signal Fold Change AT1G32410 vacuolar protein sorting 55 protein,[2],1.75
same,Signal Fold Change AT1G32560 late embryogenesis abundant group 1 domain-containing protein,[2],1.89
same,"Signal Fold Change AT1G33470, unknown biological function",[2],2.38
same,"Signal Fold Change AT1G33790, unknown biological function",[2],0.21
same,"Signal Fold Change AT1G34040, unknown biological function",[2],2.17
same,"Signal Fold Change AT1G35350, unknown biological function",[2],4.37
same,"Signal Fold Change AT1G35612, unknown biological function",[2],3.19
same,"Signal Fold Change AT1G42470, unknown biological function",[2],4.79
same,"Signal Fold Change AT1G44800, unknown biological function",[2],2.25
same,Signal Fold Change AT1G44830 AP2-containing transcription factor,[2],0.38
same,Signal Fold Change AT1G48480 leucine-rich repeat trans-membrane protein kinase,[2],3.43
same,Signal Fold Change AT1G49660 expressed protein,[2],0.47
same,Signal Fold Change AT1G50560 cytochrome P450,[2],2.50
same,Signal Fold Change AT1G52830 auxin-responsive protein,[2],4.43
same,Signal Fold Change AT1G56010 transcription activator NAC1,[2],2.97
same,"Signal Fold Change AT1G56020, unknown biological function",[2],0.49
same,"Signal Fold Change AT1G58070, unknown biological function",[2],2.37
same,"Signal Fold Change AT1G59590, unknown biological function",[2],3.94
same,Signal Fold Change AT1G59740 proton-dependent oligopeptide transport (POT) protein,[2],0.32
same,Signal Fold Change AT1G62290 aspartyl protease protein,[2],0.38
same,Signal Fold Change AT1G62510 lipid transfer protein,[2],2.20
same,"Signal Fold Change AT1G62620, unknown biological function",[2],3.52
same,Signal Fold Change AT1G64200 V-ATPase E subunit,[2],2.73
same,"Signal Fold Change AT1G65510, unknown biological function",[2],4.19
same,"Signal Fold Change AT1G65920, unknown biological function",[2],0.36
same,Signal Fold Change AT1G66230 myb transcription factor (MYB20),[2],3.14
same,Signal Fold Change AT1G67030 zinc finger (C2H2 type) protein,[2],10.77
same,"Signal Fold Change AT1G68230, unknown biological function",[2],2.59
same,Signal Fold Change AT1G68520 zinc finger (B-box type) protein,[2],1.15
same,Signal Fold Change AT1G69570 Dof-type zinc finger-containing protein,[2],6.31
same,Signal Fold Change AT1G70210 cyclin delta-1,[2],3.72
same,Signal Fold Change AT1G70850 Bet v I allergen protein,[2],22.18
same,Signal Fold Change AT1G70890 major latex protein,[2],5.05
same,Signal Fold Change AT1G71030 myb transcription factor (MYB2),[2],8.09
same,"Signal Fold Change AT1G71740, unknown biological function",[2],3.04
same,Signal Fold Change AT1G72230 plastocyanin like protein,[2],2.98
same,Signal Fold Change AT1G73220 sugar transporter protein,[2],5.76
same,Signal Fold Change AT1G73300 serine carboxypeptidase S10 protein,[2],1.69
same,Signal Fold Change AT1G73310 serine carboxypeptidase S10 protein,[2],4.07
same,Signal Fold Change AT1G73330 protease inhibitor,[2],31.27
same,Signal Fold Change AT1G73590 auxin efflux carrier protein,[2],2.03
same,"Signal Fold Change AT1G73640, small GTPase mediated signal transduction, Ras-related GTP-binding protein",[2],2.12
same,Signal Fold Change AT1G73830 bHLH protein,[2],0.20
same,"Signal Fold Change AT1G75500, unknown biological function",[2],3.18
same,"Signal Fold Change AT1G76220, unknown biological function",[2],4.28
same,"Signal Fold Change AT1G76500, photomorphogenesis, DNA-binding protein",[2],0.38
same,Signal Fold Change AT1G76540 cell division control protein,[2],2.97
same,"Signal Fold Change AT1G76790, unknown biological function",[2],3.71
same,Signal Fold Change AT1G78240 dehydration-responsive protein,[2],0.54
same,Signal Fold Change AT1G80380 phosphoribulokinase,[2],2.20
same,"Signal Fold Change AT2G01910, microtubule nucleation, microtubule associated protein (MAP65/ASE1) protein",[2],2.92
same,Signal Fold Change AT2G02820 myb transcription factor (MYB88),[2],4.90
same,Signal Fold Change AT2G02850 plantacyanin,[2],0.15
same,Signal Fold Change AT2G16580 auxin-responsive protein,[2],2.29
same,"Signal Fold Change AT2G16990, unknown biological function",[2],3.14
same,Signal Fold Change AT2G19590 ACC oxidase,[2],0.28
same,"Signal Fold Change AT2G19970, unknown biological function",[2],3.39
same,"Signal Fold Change AT2G20080, unknown biological function",[2],5.75
same,"Signal Fold Change AT2G20670, unknown biological function",[2],4.29
same,"Signal Fold Change AT2G21820, unknown biological function",[2],1.33
same,Signal Fold Change AT2G21880 Ras-related GTP-binding protein,[2],4.62
same,Signal Fold Change AT2G22860 phytosulfokines 2 (PSK2),[2],2.10
same,Signal Fold Change AT2G24150 expressed protein (response to hormone stimulus),[2],1.90
same,Signal Fold Change AT2G25900 zinc finger (CCCH-type) protein,[2],1.73
same,Signal Fold Change AT2G26070 expressed protein (response to ethylene stimulus),[2],0.28
same,Signal Fold Change AT2G26440 pectinesterase protein,[2],0.27
same,Signal Fold Change AT2G26740 epoxide hydrolase,[2],0.26
same,Signal Fold Change AT2G27140 heat shock protein,[2],2.74
same,"Signal Fold Change AT2G27370, unknown biological function",[2],2.51
same,"Signal Fold Change AT2G28305, unknown biological function",[2],2.57
same,"Signal Fold Change AT2G28410, unknown biological function",[2],2.79
same,Signal Fold Change AT2G29340 short-chain dehydrogenase,[2],0.39
same,"Signal Fold Change AT2G29440, toxin catabolic process, glutathione S-transferase",[2],0.26
same,Signal Fold Change AT2G30360 CBL-interacting protein kinase 11 (CIPK11),[2],3.63
same,Signal Fold Change AT2G33380 calcium-binding RD20 protein,[2],0.22
same,"Signal Fold Change AT2G33990, unknown biological function",[2],2.69
same,"Signal Fold Change AT2G34300, unknown biological function",[2],0.39
same,Signal Fold Change AT2G34500 cytochrome P450,[2],8.32
same,"Signal Fold Change AT2G34510, unknown biological function",[2],2.21
same,"Signal Fold Change AT2G34700, unknown biological function",[2],0.31
same,Signal Fold Change AT2G35300 late embryogenesis abundant group 1 domain-containing protein,[2],2.86
same,Signal Fold Change AT2G35710 glycogenin glucosyltransferase,[2],2.25
same,Signal Fold Change AT2G36350 protein kinase,[2],0.54
same,"Signal Fold Change AT2G36410, unknown biological function",[2],3.05
same,Signal Fold Change AT2G37130 peroxidase 21,[2],2.23
same,"Signal Fold Change AT2G38760, unknown biological function",[2],5.36
same,"Signal Fold Change AT2G38790, unknown biological function",[2],3.21
same,Signal Fold Change AT2G39010 aquaporin,[2],1.95
same,"Signal Fold Change AT2G39310, unknown biological function",[2],3.40
same,"Signal Fold Change AT2G39980, unknown biological function",[2],0.25
same,Signal Fold Change AT2G40420 amino acid transporter,[2],3.56
same,"Signal Fold Change AT2G41090, unknown biological function",[2],0.11
same,"Signal Fold Change AT2G41230, unknown biological function",[2],0.05
same,"Signal Fold Change AT2G42320, unknown biological function",[2],0.54
same,Signal Fold Change AT2G43050 pectinesterase protein,[2],3.42
same,Signal Fold Change AT2G43535 trypsin inhibitor,[2],6.32
same,Signal Fold Change AT2G44110 seven transmembrane MLO protein,[2],0.43
same,Signal Fold Change AT2G44130 kelch repeat containing F-box protein,[2],4.62
same,Signal Fold Change AT2G47510 fumarate hydratase,[2],0.48
same,Signal Fold Change AT2G47550 pectinesterase protein,[2],0.49
same,"Signal Fold Change AT2G48030, unknown biological function",[2],2.22
same,Signal Fold Change AT3G04010 glycosyl hydrolase,[2],3.80
same,"Signal Fold Change AT3G05990, signal transduction, phosphodiesterase leucine-rich repeat protein",[2],2.33
same,"Signal Fold Change AT3G09020, unknown biological function",[2],3.42
same,Signal Fold Change AT3G09780 protein kinase,[2],0.40
same,"Signal Fold Change AT3G10080, unknown biological function",[2],2.14
same,Signal Fold Change AT3G10340 phenylalanine ammonia-lyase,[2],2.63
same,"Signal Fold Change AT3G11550, unknown biological function",[2],2.97
same,"Signal Fold Change AT3G12030, DNA repair, expressed protein",[2],2.06
same,Signal Fold Change AT3G12500 basic endocexemplary inase,[2],3.58
same,"Signal Fold Change AT3G13980, unknown biological function",[2],6.58
same,Signal Fold Change AT3G14370 protein kinase,[2],0.36

# Reference: patent US8481459B2, “Chemical inhibitors of ethylene biosynthesis” (Academia Sinica, priority 2010, dated 2013)
